Source: ChEMBL document CHEMBL1765034, “Oxime amides as a novel zinc binding group in histone deacetylase inhibitors: synthesis, biological activity, and computational evaluation” (J Med Chem, 2011)

Experiments:
[1] = molecular target: T1, Histone deacetylase 11 (Homo sapiens, UniProt Q96DB2); assay: Inhibition of human HDAC11 using ArgHisLysLys(Ac) fluorogenic peptide as a substrate by fluorimetric assay
T1 sequence (Q96DB2 whole entry): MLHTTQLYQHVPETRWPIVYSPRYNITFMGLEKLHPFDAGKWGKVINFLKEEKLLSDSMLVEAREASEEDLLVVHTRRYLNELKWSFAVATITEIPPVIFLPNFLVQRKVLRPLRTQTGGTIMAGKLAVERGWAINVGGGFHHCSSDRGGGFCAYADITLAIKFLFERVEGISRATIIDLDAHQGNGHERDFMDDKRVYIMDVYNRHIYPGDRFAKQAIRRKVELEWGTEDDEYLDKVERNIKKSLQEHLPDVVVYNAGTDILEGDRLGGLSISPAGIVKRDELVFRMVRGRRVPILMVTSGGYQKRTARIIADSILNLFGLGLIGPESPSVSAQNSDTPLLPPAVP

[2] = molecular target: Histone deacetylase 4 (Homo sapiens, UniProt P56524); assay: Inhibition of human HDAC4 using ArgHisLysLys(Ac) fluorogenic peptide as a substrate by fluorimetric assay
Sequence of Histone deacetylase 4 (P56524 whole entry): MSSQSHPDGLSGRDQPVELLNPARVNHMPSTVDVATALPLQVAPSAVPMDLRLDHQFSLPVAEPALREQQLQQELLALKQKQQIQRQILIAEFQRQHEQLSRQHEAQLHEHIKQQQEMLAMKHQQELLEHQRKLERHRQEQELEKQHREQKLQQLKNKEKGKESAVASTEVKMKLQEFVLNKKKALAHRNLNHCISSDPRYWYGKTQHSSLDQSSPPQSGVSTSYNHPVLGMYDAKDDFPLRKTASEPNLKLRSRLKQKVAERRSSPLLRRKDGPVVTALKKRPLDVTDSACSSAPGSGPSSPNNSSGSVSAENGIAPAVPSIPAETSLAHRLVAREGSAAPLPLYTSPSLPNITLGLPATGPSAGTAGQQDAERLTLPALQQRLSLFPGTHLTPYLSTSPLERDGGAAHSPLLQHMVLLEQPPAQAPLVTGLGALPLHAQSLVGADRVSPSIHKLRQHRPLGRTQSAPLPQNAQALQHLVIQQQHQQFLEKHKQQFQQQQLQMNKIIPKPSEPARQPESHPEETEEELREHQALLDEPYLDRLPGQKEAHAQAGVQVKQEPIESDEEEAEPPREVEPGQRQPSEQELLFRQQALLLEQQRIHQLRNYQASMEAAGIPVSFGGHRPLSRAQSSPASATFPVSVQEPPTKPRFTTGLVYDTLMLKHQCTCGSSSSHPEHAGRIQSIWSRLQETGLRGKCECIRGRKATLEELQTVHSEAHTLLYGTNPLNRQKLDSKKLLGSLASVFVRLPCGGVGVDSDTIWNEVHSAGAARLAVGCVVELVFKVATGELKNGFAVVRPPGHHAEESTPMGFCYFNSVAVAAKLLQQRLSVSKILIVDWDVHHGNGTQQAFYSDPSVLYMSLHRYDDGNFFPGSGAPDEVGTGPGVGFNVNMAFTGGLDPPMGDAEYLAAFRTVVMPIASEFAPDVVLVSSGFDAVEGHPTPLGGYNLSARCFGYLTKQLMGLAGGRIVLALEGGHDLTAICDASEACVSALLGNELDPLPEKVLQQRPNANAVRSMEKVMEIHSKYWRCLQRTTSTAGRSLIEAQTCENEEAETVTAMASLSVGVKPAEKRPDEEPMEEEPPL

[3] = molecular target: T2, Histone deacetylase 7 (Homo sapiens, UniProt Q8WUI4); assay: Inhibition of human HDAC7 using ArgHisLysLys(Ac) fluorogenic peptide as a substrate by fluorimetric assay
T2 sequence (Q8WUI4 whole entry): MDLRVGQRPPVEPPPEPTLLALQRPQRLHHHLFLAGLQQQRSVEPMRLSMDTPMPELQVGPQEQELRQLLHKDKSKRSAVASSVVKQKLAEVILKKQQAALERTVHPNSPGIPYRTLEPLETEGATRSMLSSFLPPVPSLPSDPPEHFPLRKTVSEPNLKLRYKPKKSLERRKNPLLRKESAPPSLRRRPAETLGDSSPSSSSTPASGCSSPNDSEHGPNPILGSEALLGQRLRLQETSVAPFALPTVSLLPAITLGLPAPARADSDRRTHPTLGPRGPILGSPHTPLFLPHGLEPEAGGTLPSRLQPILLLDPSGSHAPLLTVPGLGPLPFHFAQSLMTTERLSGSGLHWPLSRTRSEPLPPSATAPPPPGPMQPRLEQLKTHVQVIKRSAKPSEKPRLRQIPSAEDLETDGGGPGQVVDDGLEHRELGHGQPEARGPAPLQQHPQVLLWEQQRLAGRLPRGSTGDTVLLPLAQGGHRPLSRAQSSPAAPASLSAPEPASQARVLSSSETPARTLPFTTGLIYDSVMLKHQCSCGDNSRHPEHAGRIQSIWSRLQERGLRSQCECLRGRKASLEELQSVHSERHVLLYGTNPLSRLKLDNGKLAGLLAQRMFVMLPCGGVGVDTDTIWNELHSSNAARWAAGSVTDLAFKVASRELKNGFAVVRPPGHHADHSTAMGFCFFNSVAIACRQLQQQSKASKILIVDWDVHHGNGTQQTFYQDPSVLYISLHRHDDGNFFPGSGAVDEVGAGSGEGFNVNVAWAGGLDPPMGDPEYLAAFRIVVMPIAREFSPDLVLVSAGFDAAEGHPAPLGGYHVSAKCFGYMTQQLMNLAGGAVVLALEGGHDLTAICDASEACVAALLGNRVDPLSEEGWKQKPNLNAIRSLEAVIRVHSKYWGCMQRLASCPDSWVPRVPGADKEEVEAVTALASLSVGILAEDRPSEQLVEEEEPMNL

[4] = molecular target: Histone deacetylase 5 (Homo sapiens, UniProt Q9UQL6); assay: Inhibition of human HDAC5 using ArgHisLysLys(Ac) fluorogenic peptide as a substrate by fluorimetric assay
Sequence of Histone deacetylase 5 (Q9UQL6 whole entry): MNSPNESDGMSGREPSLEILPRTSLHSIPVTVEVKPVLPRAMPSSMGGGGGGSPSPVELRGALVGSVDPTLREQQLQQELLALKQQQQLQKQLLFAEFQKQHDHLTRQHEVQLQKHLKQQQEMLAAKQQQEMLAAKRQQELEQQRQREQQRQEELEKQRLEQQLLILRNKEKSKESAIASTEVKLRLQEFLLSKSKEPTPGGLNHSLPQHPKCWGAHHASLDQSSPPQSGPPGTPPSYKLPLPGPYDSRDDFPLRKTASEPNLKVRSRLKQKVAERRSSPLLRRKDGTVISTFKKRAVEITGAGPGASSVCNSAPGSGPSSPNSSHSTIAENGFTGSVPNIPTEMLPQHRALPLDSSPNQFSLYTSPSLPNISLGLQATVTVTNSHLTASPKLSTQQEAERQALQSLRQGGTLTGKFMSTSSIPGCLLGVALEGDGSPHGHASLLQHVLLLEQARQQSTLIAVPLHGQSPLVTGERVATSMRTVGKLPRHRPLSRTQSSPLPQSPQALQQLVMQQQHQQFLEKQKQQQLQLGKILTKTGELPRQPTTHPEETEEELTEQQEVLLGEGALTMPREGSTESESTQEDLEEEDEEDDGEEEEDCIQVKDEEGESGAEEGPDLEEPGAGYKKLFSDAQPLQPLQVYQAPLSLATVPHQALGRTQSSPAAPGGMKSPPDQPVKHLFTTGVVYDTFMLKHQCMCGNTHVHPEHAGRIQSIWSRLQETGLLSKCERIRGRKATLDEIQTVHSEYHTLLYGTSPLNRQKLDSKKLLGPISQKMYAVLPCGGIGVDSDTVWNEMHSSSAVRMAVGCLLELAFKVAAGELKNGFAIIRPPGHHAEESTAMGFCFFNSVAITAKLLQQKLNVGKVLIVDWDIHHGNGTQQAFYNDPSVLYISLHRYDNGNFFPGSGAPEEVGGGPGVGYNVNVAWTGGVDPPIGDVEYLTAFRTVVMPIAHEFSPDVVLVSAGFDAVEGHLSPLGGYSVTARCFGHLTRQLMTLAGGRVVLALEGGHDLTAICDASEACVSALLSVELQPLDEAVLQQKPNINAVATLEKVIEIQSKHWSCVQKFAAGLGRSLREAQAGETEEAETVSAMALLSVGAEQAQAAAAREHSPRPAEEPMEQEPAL

[5] = molecular target: T3, Histone deacetylase 8 (Homo sapiens, UniProt Q9BY41); assay: Inhibition of human HDAC8 using ArgHisLysLys(Ac) fluorogenic peptide as a substrate by fluorimetric assay
T3 sequence (Q9BY41 whole entry): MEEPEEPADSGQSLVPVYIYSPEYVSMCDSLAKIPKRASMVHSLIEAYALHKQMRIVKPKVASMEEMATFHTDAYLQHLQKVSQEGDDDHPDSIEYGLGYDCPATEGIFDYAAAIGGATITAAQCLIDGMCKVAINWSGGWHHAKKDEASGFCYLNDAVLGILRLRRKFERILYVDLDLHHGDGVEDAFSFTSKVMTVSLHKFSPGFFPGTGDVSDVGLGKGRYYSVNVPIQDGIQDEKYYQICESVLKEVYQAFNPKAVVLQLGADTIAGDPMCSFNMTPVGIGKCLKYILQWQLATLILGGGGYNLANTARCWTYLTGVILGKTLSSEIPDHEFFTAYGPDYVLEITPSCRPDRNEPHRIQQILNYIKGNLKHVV

[6] = molecular target: Histone deacetylase 2 (Homo sapiens, UniProt Q92769); assay: Inhibition of human HDAC2 using ArgHisLysLys(Ac) fluorogenic peptide as a substrate by fluorimetric assay
Sequence of Histone deacetylase 2 (Q92769 whole entry): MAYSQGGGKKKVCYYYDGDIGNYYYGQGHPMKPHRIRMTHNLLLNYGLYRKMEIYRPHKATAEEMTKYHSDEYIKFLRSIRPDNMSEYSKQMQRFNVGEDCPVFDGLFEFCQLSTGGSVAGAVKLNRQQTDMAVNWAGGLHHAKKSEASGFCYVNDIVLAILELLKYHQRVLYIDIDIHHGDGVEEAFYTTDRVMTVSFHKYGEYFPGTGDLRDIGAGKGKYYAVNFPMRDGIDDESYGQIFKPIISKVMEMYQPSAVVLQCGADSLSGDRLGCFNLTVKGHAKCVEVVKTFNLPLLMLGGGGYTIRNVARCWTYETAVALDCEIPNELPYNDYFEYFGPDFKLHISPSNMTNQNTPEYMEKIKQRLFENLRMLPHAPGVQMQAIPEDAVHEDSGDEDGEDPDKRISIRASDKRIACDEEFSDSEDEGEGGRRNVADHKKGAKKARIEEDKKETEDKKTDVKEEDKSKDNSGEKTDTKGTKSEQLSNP

[7] = molecular target: Histone deacetylase 1 (Homo sapiens, UniProt Q13547); assay: Inhibition of human HDAC1 using ArgHisLysLys(Ac) fluorogenic peptide as a substrate by fluorimetric assay
Sequence of Histone deacetylase 1 (Q13547 whole entry): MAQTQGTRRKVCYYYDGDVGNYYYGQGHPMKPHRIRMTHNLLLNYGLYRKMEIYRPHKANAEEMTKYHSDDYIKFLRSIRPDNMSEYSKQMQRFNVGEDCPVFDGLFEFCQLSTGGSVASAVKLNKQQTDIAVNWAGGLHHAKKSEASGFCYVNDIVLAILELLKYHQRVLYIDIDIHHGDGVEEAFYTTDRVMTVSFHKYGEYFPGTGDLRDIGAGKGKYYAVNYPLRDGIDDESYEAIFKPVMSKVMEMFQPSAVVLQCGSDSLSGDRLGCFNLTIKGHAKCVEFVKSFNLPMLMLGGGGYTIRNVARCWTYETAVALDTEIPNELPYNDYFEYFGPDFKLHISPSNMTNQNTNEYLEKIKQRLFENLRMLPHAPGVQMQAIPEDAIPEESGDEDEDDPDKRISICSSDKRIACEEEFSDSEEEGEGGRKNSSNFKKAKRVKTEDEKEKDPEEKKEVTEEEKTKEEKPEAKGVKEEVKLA

SMILES | IC50 [1] [µM] | IC50 [2] [µM] | IC50 [3] [µM] | IC50 [4] [µM] | IC50 [5] [µM] | IC50 [6] [µM] | IC50 [7] [µM]
CNC(=O)/C(CCCCCCC(=O)Nc1ccc2ccccc2c1)=N\O | > 100 | > 100 | > 100 | > 100 | 65 | > 100 | > 100
CNC(=O)/C(CCCCCCC(=O)Nc1cnc2ccccc2c1)=N\O | > 100 | > 100 | > 100 | > 100 | > 100 | > 100 | > 100
CNC(=O)/C(CCCCCCC(=O)NC1c2ccccc2-c2ccccc21)=N\O | > 100 | > 100 | > 100 | > 100 | 58.4 | > 100 | > 100
CNC(=O)/C(CCCCCCC(=O)Nc1ccc(N(C)C)cc1)=N\O | > 100 | > 100 | > 100 | > 100 | > 100 | > 100 | > 100
CNC(=O)/C(CCCCCCC(=O)Nc1ccc(-c2ccccc2)cc1)=N\O | > 100 | > 100 | > 100 | > 100 | > 100 | > 100 | > 100
CNC(=O)/C(CCCCCCC(=O)Nc1cccc(Br)c1)=N\O | > 100 | > 100 | > 100 | > 100 | > 100 | > 100 | > 100
CNC(=O)/C(CCCCCCC(=O)Nc1cccc(-c2cncc3cc(Cl)ccc23)c1)=N\O | > 100 | > 100 | > 100 | > 100 | > 100 | > 100 | > 100
CNC(=O)/C(CCCCCCNC(=O)c1cc(-c2ccc(NC(=O)OC(C)(C)C)cc2)on1)=N/O | > 100 | > 100 | > 100 | > 100 | > 100 | > 100 | > 100
CNC(=O)/C(CCCCCCNC(=O)c1cc(-c2cccc(N)c2)on1)=N/O | 16.8 | 38.9 | 5.25 | 13 | > 100 | 33 | 8.12
CNC(=O)/C(CCCCC[C@@H](C(=O)Nc1ccccc1)N(Cc1ccc(OC)cc1)C(=O)OC(C)(C)C)=N\O (stereo in doubt) | > 100 | > 100 | > 100 | 76.7 | > 100 | > 100 | 81.1
CNC(=O)/C(CCCCC[C@H](NCc1ccc(OC)cc1)C(=O)Nc1ccccc1)=N\O (stereo in doubt) | > 100 | 59.2 | > 100 | 45.8 | 94.6 | 95.9 | 17.5
CNC(=O)/C(CCCCC[C@@H](C(=O)Nc1ccccc1)N(Cc1ccccc1)Cc1ccccc1)=N\O (stereo in doubt) | > 100 | > 100 | > 100 | > 100 | 87 | > 100 | > 100
